Measurements taken from ChEMBL document CHEMBL1201862, “PubChem BioAssay data set” (2004).
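Results reflect a 48-hour exposure of cells in 96-well plates to compound at five concentrations. The concentration for 50% growth inhibition is given as GI50.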 Active and inactive are the calls of the source. Rule as the data show it: active = GI50 up to about 1.1 µM and inactive = higher.

Legend:
Assay in all cases: growth of human tumour cells (NCI), 48 h
786-0 = test system: 786-0
A498 = test system: A498
A549 = test system: A549
ACHN = test system: ACHN
BT-549 = test system: BT-549
CAKI-1 = test system: CAKI-1
CCRF-CEM = test system: CCRF-CEM
COLO 205 = test system: COLO 205
DU-145 = test system: DU-145
EKVX = test system: EKVX
HCC 2998 = test system: HCC 2998
HCT-116 = test system: HCT-116
HCT-15 = test system: HCT-15
HL-60 = test system: HL-60
HOP-92 = test system: HOP-92
HT-29 = test system: HT-29
Hs-578T = test system: Hs-578T
IGROV-1 = test system: IGROV-1
K562 = test system: K562
KM12 = test system: KM12
LOX IMVI = test system: LOX IMVI
M14 = test system: M14
MCF7 = test system: MCF7
MDA-MB-231 = test system: MDA-MB-231
MDA-MB-435 = test system: MDA-MB-435
MDA-N = test system: MDA-N
MOLT-4 = test system: MOLT-4
Malme-3M = test system: Malme-3M
NCI-H226 = test system: NCI-H226
NCI-H23 = test system: NCI-H23
NCI-H460 = test system: NCI-H460
NCI-H522 = test system: NCI-H522
NCI/ADR-RES = test system: NCI/ADR-RES
OVCAR-3 = test system: OVCAR-3
OVCAR-4 = test system: OVCAR-4
OVCAR-5 = test system: OVCAR-5
OVCAR-8 = test system: OVCAR-8
PC-3 = test system: PC-3
RPMI-8226 = test system: RPMI-8226
SF-268 = test system: SF-268
SF-295 = test system: SF-295
SF-539 = test system: SF-539
SK-MEL-28 = test system: SK-MEL-28
SK-MEL-2 = test system: SK-MEL-2
SK-MEL-5 = test system: SK-MEL-5
SK-OV-3 = test system: SK-OV-3
SN12C = test system: SN12C
SNB-19 = test system: SNB-19
SNB-75 = test system: SNB-75
SW-620 = test system: SW-620
T47D = test system: T47D
TK-10 = test system: TK-10
U-251 = test system: U-251
UACC-257 = test system: UACC-257

SMILES: CCCCCC/C=C/C#CCCCCCCCC(=O)O
- GI50 (786-0): > 100 µM (inactive)
- GI50 (A498): > 100 µM (inactive)
- GI50 (A549): > 100 µM (inactive)
- GI50 (ACHN): > 100 µM (inactive)
- GI50 (BT-549): > 100 µM (inactive)
- GI50 (CAKI-1): > 100 µM (inactive)
- GI50 (CCRF-CEM): 82.4 µM (inactive)
- GI50 (COLO 205): > 100 µM (inactive)
- GI50 (DU-145): > 100 µM (inactive)
- GI50 (EKVX): > 100 µM (inactive)
- GI50 (HCC 2998): > 100 µM (inactive)
- GI50 (HCT-116): > 100 µM (inactive)
- GI50 (HCT-15): > 100 µM
- GI50 (HL-60): > 100 µM (inactive)
- GI50 (HOP-92): > 100 µM (inactive)
- GI50 (HT-29): > 100 µM (inactive)
- GI50 (Hs-578T): > 100 µM (inactive)
- GI50 (IGROV-1): > 100 µM (inactive)
- GI50 (K562): > 100 µM (inactive)
- GI50 (KM12): > 100 µM (inactive)
- GI50 (LOX IMVI): > 100 µM (inactive)
- GI50 (M14): > 100 µM (inactive)
- GI50 (MCF7): > 100 µM (inactive)
- GI50 (MDA-MB-231): > 100 µM (inactive)
- GI50 (MDA-MB-435): > 100 µM (inactive)
- GI50 (MDA-N): > 100 µM (inactive)
- GI50 (MOLT-4): 78.2 µM (inactive)
- GI50 (Malme-3M): > 100 µM (inactive)
- GI50 (NCI-H226): > 100 µM (inactive)
- GI50 (NCI-H23): > 100 µM (inactive)
- GI50 (NCI-H460): > 100 µM (inactive)
- GI50 (NCI-H522): > 100 µM (inactive)
- GI50 (NCI/ADR-RES): > 100 µM (inactive)
- GI50 (OVCAR-3): > 100 µM (inactive)
- GI50 (OVCAR-4): > 100 µM (inactive)
- GI50 (OVCAR-5): > 100 µM (inactive)
- GI50 (OVCAR-8): > 100 µM (inactive)
- GI50 (PC-3): > 100 µM (inactive)
- GI50 (RPMI-8226): > 100 µM (inactive)
- GI50 (SF-268): > 100 µM (inactive)
- GI50 (SF-295): > 100 µM (inactive)
- GI50 (SF-539): > 100 µM (inactive)
- GI50 (SK-MEL-28): > 100 µM (inactive)
- GI50 (SK-MEL-2): > 100 µM (inactive)
- GI50 (SK-MEL-5): > 100 µM (inactive)
- GI50 (SK-OV-3): > 100 µM (inactive)
- GI50 (SN12C): > 100 µM (inactive)
- GI50 (SNB-19): > 100 µM (inactive)
- GI50 (SNB-75): > 100 µM (inactive)
- GI50 (SW-620): > 100 µM (inactive)
- GI50 (T47D): > 100 µM (inactive)
- GI50 (TK-10): > 100 µM (inactive)
- GI50 (U-251): > 100 µM (inactive)
- GI50 (UACC-257): > 100 µM (inactive)
